Laboratory results as given in patent publication US20240390902A1, “METHODS AND SYSTEMS FOR SORTING BIOLOGICAL PARTICLES” (Newomics Inc., priority 2017, published 2024).
Values joined by “and” are separate entries in the source; they are usually repeats but may differ in a detail not shown here. Equal entries are not always repeated. Where two headings read alike, the source gives them in different places.

Legend:
[1] = test system: human mesenchymal stem cells (hMSCs)
Description: Senescent cell model and staining. hMSCs or mMSCs senescence was induced chemically using hydrogen peroxide or using X-ray radiation. The medium containing hydrogen peroxide (H2O2) was prepared by diluting 30% H2O2 solution (H1009, Sigma, USA) with MSCs culture medium to desired concentrations. For the H2O2 treatment experiments, the MSCs were cultured in the medium containing H2O2 at 37° C. for 3 hours. After that, the MSCs were washed with 1×DPBS 2 times and cultured in the fresh media for a variable number of days before analysis. For X-ray radiation treatment, MSCs were placed on a rotating table and exposed to 1 gray (Gy), 4 Gy, or 6 Gy radiation. After treatment, cells were cultured for a variable number of days before analysis. The senescent cells were identified by the senescence detection kit (K320, BioVision, USA), which targets senescence-associated β-galactosidase (SA-β-gal) activity, following the manufacturer's provided protocol. […] For the experiments using the mixture of basal and H2O2-treated hMSCs, the H2O2-treated hMSCs were stained with cell tracker (C34551, CellTracker™ orange CMRA Dye™ dye, ThermoFisher Scientific, USA), while basal hMSCs were stained with Hoechst for 10 minutes to differentiate two cell populations.
Cellular senescence induction of human MSCs. Hydrogen peroxide (H2O2) was used to induce cellular senescence of human MSCs. We tested three H2O2 concentrations: 100, 200, and 300 μM. Concentrated H2O2 (100×) was prepared and was added to hMSC culture media using a 1 to 100 dilution, after which, hMSCs were cultured in H2O2 contained medium in a 37° C. incubator for three hours. After H2O2 treatment, the H2O2 contained medium was withdrawn and the culture wells were washed with DPBS two times. Fresh culture medium was then added to cells for 1, 4, and 7 days post-culture. hMSCs were detached using Trypsin/EDTA, then labeled with a senescence detection kit in a 37° C. incubator overnight following the manufacturer's recommended protocol (K320, BioVision, USA). The senescence kit targets senescence-associated β-galactosidase (SA-β-gal) activity within cells. The SA-β gal^+ cells and total cells were counted to estimate the senescence cell ratio. […] For the experiment to mix basal hMSCs with H2O2 treated hMSCs, the basal hMSCs followed the same culture protocol, but without H2O2 treatment.

[2] = test system: human mesenchymal stem cells (hMSCs); conditions: 300 μM H2O2, 3 hours (FIG. 19B)
Description: Cell culture and staining. Human mesenchymal stem cells (MSCs) were derived from a person and purchased from Lonza (Lonza, 0000471980). […] Cells were cultured in a humidified incubator (Symphony 5.3A CO2 incubator, VWR, USA) at 37° C. with 5% CO2. MSCs basal medium (PT-3238, Lonza) with MSCGM™ SingleQuots supplement kit (PT-4105, Lonza) was used for hMSC culture, and MesenCult™ Expansion kit (5513, [sequence] Technologies, Canada) was used for mMSC culture. Both media were supplemented with 1% penicillin-streptomycin (15140122, ThermoFisher Scientific, USA) to prevent cell contamination during culture. Basal MSCs were stained with either Hoechst (Hoechst 33342, H3570, ThermoFisher Scientific, USA) for 10 minutes or cell tracker (C2102, CellTracker™ green BODIPY™ dye, ThermoFisher Scientific, USA) for 15 minutes. In all cases, adhesive cells were detached using Trypsin/EDTA (CC3232, Lonza) at 37° C. for 10 minutes. The size of trypsinized cells was measured by the analytical tool provided in the Olympus cellSens Dimension software.

[3] = test system: mouse mesenchymal stem cells (mMSCs)
Description: Mouse mesenchymal stem cells (MSCs) were purchased from Cyagen (Strain C57BL/6 Mouse Mesenchymal Stem Cells, MUBMX-01001, Cyagen, USA). Cells were cultured in a humidified incubator (Symphony 5.3A CO2 incubator, VWR, USA) at 37° C. with 5% CO2. MSCs basal medium (PT-3238, Lonza) with MSCGM™ SingleQuots supplement kit (PT-4105, Lonza) was used for hMSC culture, and MesenCult™ Expansion kit (5513, [sequence] Technologies, Canada) was used for mMSC culture. Both media were supplemented with 1% penicillin-streptomycin (15140122, ThermoFisher Scientific, USA) to prevent cell contamination during culture. Basal MSCs were stained with either Hoechst (Hoechst 33342, H3570, ThermoFisher Scientific, USA) for 10 minutes or cell tracker (C2102, CellTracker™ green BODIPY™ dye, ThermoFisher Scientific, USA) for 15 minutes. In all cases, adhesive cells were detached using Trypsin/EDTA (CC3232, Lonza) at 37° C. for 10 minutes. The size of trypsinized cells was measured by the analytical tool provided in the Olympus cellSens Dimension software.

[4] = test system: mouse mesenchymal stem cells (mMSCs); conditions: 150 μM H2O2; each timepoint including 24 hours after treatment
Description: Cellular senescence induction of mouse MSCs. […] At each timepoint, mMSCs were labeled with a senescence detection kit in a 37° C. incubator overnight. The senescence cell ratio was calculated by dividing the SA-β gal^+ cells over the total number of cells counted.

[5] = test system: human mesenchymal stem cells (hMSCs); assay: Necrosis of human MSCs (apoptosis kit, annexin V-FITC / SYTOX green); conditions: for necrotic cell percentage of hMSCs: 300 μM H2O2 treated
[6] = 300 μM H2O2 treated hMSCs, cultured 7 days, stored at 4° C. another 2 days (FIG. 19B)
[7] = 150 μM H2O2 for three hours, after culturing for 1 day

## OO [H2O2, hydrogen peroxide]
[1]; 300 μM H2O2 for 3 hours, 1 day post-treatment
  percentage of senescent hMSCs: 9.9%
[1]; 300 μM H2O2 for 3 hours, 3 days post-treatment
  percentage of senescent hMSCs: 16.5%
[1]; 300 μM H2O2 for 3 hours, 7 days post-treatment
  percentage of senescent hMSCs (senescence ratio): ~50% and 57.7%
[1]; [6]
  percentage of senescent cells: 51.7%
[2]
  size of hMSCs: 29.4+/−3.2 μm
[3]; [7]
  increase of size compared to basal mMSCs: 3.5 μm
  size of mMSCs: 16.8+/−2.5 μm
[3]; H2O2 (150 μM) treated mMSCs, sample input
  purity of cells >15 μm: 43.5%
[4]
  senescence ratio of mMSCs versus cells without H2O2 treatment: higher
[5]; [6]
  percentage of necrotic cells: 37%
  percentage of viable cells: 11.3%
[5]; before storage at 4° C.
  necrotic cell percentage of hMSCs: 25%
[5]; stored at 4° C. refrigerator for 2 days
  necrotic cell percentage of hMSCs: 56%
